# How the values were obtained:
# PLA2G16 = molecular target: T1, PLA2G16 (Homo sapiens, UniProt P53816); assay: Enzyme activity assay for PLA2G16 (Red/Green BODIPY PC-A2 fluorescence); assay type: biochemical; details: His-tagged PLA2G16, 4 min pre-incubation, compound 2 nM to 50 μM; first symbol in parentheses
# T1 construct: Hexa-His (N); made in house; host or cells: E. coli BL21(DE3)
# T1 sequence (P53816 1-162): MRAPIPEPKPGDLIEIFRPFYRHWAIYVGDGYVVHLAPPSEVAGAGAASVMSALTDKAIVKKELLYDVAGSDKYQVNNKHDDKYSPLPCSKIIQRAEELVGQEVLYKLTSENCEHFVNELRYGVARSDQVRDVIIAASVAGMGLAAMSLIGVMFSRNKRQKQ
# From the text: Purification and Enzyme Activity Assay for PLA2G16
# A cDNA for PLA2G16 (NM_007069) was custom-synthesized by Genscript (Piscataway, USA) and inserted into a pET-based bacterial expression vector [Moffatt, B. A. and Studier, F. W. (1986) J. Mol. Biol. 189, 113-130; Rosenberg, A. H., Lade, B. N., Chui, D., Lin, S., Dunn, J. J., and Studier, F. W. (1987) Gene 56, 125-135], enabling the expression of N-terminally Hexa-His-tagged PLA2G16. E. coli BL21(DE3) (Agilent) were transformed with pET-His-PLA2G16 according to the manufacturer's instructions and plated on Carbenicillin-containing agar plates (final concentration: 100 μg/mL). A single clone was inoculated in 100 mL LB medium supplemented with 100 μg/mL Carbenicillin and the inoculated culture was grown at 37° C. overnight in a rotary shaker. On the next day, the bacterial culture was diluted in LB medium supplemented with 100 μg/mL Carbenicillin (30 mL overnight culture in 800 mL total culture volume). Bacteria were grown at 37° C. until the OD600 reached 0.6. Gene expression was induced by addition of 1 mM isopropyl-β-D-thiogalactopyranosid (IPTG) for 2 h at 18° C. Subsequently, bacteria were harvested by centrifugation (15 min; 10,000×g; 4° C.) and frozen at −80° C. The bacterial pellet was resuspended in Buffer A (50 mM Tris/HCl pH 7.5, 500 mM NaCl, 5% glycerol, 5 mM β-Mercaptoethanol and 1 mM PMSF) and lysed by addition of 1 mg/mL lysozyme (Sigma Aldrich) and 100 μg/mL DNasel-(Roche). The sample was incubated at 30° C. for 30 min to allow lysis to occur. Then, the lysate was cleared by centrifugation (15,000×g, 15 min, 4° C.) and incubated with 1.5 mL Ni-NTA agarose suspension (Qiagen) for 60 min at 4° C. The Ni-NTA agarose was washed with 10 mL Buffer A. Bound protein was eluted by applying a manual gradient of Buffer A supplemented with increasing concentrations of imidazole (Sigma Aldrich; 25/50/75/100/250 mM). Purified fractions were analyzed by SDS-PAGE followed by Coomassie staining to assess the purity.
# Activity of the protein was assessed as follows:
# Red/Green BODIPY® PC-A2 (Invitrogen, 1 mM in DMSO) was mixed with equal volumes of 1,2-Dioleoyl-sn-glycero-3-phosphocholine (DOPC; Sigma Aldrich, 10 mM in Ethanol) and 1,2-Dioleoyl-sn-glycero-3-phospho-rac-(1-glycerol) (DOPG; Sigma Aldrich, 10 mM in Ethanol) and 0.5 volumes of Cholesterol (CHOL; Sigma Aldrich, 10 mM in Ethanol) and vortexed for 5 s. The mixture (Red/Green BODIPY® PC-A2/DOPC/DOPG/CHOL) was diluted 1:91.4 in activity assay buffer (50 mM Tris/HCl pH 8.5, 100 mM NaCl) using a small-orifice pipette tip under constant vortexing. In the following, this preparation will be referred to as the “substrate solution”.
# In order to evaluate their inhibitory potential, compounds were dissolved at 10 mM concentration in DMSO and directly spotted into assay plates (Corning, Cat. No. 3576) using acoustic liquid transfer (Labcyte Echo 525). Each compound was spotted at increasing concentrations, ranging from 2 nM to 50 μM (concentration in the final assay volume). 50 μl of PLA2G16 enzyme solution (diluted in activity buffer, supplemented with 5 mM L-Glutathione; Sigma Aldrich) was pre-incubated with compounds for 4 min., followed by addition of 50 μl of substrate solution. Fluorescence was recorded immediately after substrate addition for a total time of 10 min. using a SpectraMax M5 multimode reader (Excitation wavelength: 480 nm, emission wavelength: 530 nm). The relative increase of fluorescence over time is referred to as the enzyme activity. Half-maximal inhibitory concentrations (IC50) were derived by non-linear regression analysis using the drc package in R (R Development. Core Team, 2005).
# [1] = tested on: picornaviruses (CVB1, HRV-A2, HRV-A23, EV-68); assay: Anti-picornavirus cytopathic effect (CPE) reduction assay on HeLa H1 cells; assay type: cell-based; details: 48 h, category from averaging EC50 values of four picornaviruses (CVB1, HRV-A2, HRV-A23, EV68), second symbol in parentheses
# Experimental: Anti-Picornavirus Assay in Mammalian Cell Culture
# The antiviral activity of selected compounds was tested using a cytopathic effect (CPE) reduction assay on HeLa H1 cells (ATCC CRL-1958). Briefly, cells were seeded in 96-well dishes (2×10^4 cells/well) in DMEM medium (Life technologies) supplemented with 10% FBS and PenStrep solution (100 U/mL Penicillin and 100 μg/mL streptomycin) and incubated at 37° C., 5% CO2 overnight. The next day, cells were pre-treated with serial dilutions of the compound in DMEM medium supplemented with 2% FBS and PenStrep for 2 h at 37° C., 5% CO2. Next, cells were infected with virus (CVB1, HRV-A2, HRV-A23, EV-68) at an multiplicity of infection (MOI) which results in a complete virus-induced CPE within 2 days in control wells (infected and vehicle-treated). After 48 h, supernatants were aspirated and 50 μl/well of CellTiterBlue reagent (Promega) diluted 1:5 in DMEM+2% FBS, was added to the cells. Plates were returned to the incubator and allowed to develop for 1.5 h. After that, plates were equilibrated to RT and subsequently, fluorescence was recorded (Excitation wavelength: 560 nm; emission wavelength: 590 nm) using a SpectraMax M5 multimode plate reader. Viability of cells was calculated according to the formula: V=(RFUCpd−RFUVeh/(RFUM−RFUVeh), where RFUCpd refers to infected and compound-treated cells, RFUVeh to infected and vehicle-treated cells and RFUM to uninfected and vehicle treated cells. Half-maximal effective concentrations (EC50) were calculated by non-linear regression analysis using the drc package in R (R Development. Core Team, 2005). EC50 categories as presented in Table 2 were calculated by averaging the EC50 values from four picornaviruses (CVB1, HRV-A2, HRV-A23, EV68).
Compound,IC50 (PLA2G16) [nM],EC50 [1] [nM]
"O=C(NCC(F)(F)C(F)(F)F)C(=O)[C@H]1CNC(=O)[C@@H]1c1ccccc1 (racemic) [FP-25, Rac-2-oxo-2-[(3R,4S)-5-oxo-4-phenylpyrrolidin-3-yl]-N-(2,2,3,3,3-pentafluoro-propyl)acetamide]",< 1000,1000 to 10000
"CC(C)NC(=O)C(=O)[C@H]1CNC(=O)[C@@H]1c1ccccc1 (racemic) [FP-78, Rac-2-oxo-2-[(3R,4S)-5-oxo-4-phenylpyrrolidin-3-yl]-N-(propan-2-yl)acetamide]",< 1000,1000 to 10000
"CC(F)(F)CNC(=O)C(=O)[C@H]1CN(c2cncnc2)C(=O)[C@@H]1Cc1ccccc1 (single isomer, unassigned) [FP-95]",< 1000,< 1000
"Cn1ncnc1CN1C[C@H](C(=O)C(=O)NC2CC2)[C@@H](Cc2ccccc2)C1=O (single isomer, unassigned) [FP-98]",< 1000,1000 to 10000
"O=C(NC1CC1)C(=O)[C@H]1CN(CC2CCOCC2)C(=O)[C@@H]1Cc1ccccc1 (racemic) [FP-32, Rac-2-[(3R,4R)-4-benzyl-1-[(oxan-4-yl)methyl]-5-oxopyrrolidin-3-yl]-N-cyclopropyl-2-oxoacetamide]",< 1000,< 1000
"CC(F)(F)CNC(=O)C(=O)[C@H]1CNC(=O)[C@@H]1c1ccc(F)cc1 (racemic) [FP-26, Rac-N-(2,2-difluoropropyl)-2-[(3R,4S)-4-(4-fluorophenyl)-5-oxopyrrolidin-3-yl]-2-oxoacetamide]",< 1000,1000 to 10000
"CC(F)(F)CNC(=O)C(=O)[C@H]1CNC(=O)[C@@H]1c1ccccc1 (racemic) [FP-11, Rac-N-(2,2-difluoropropyl)-2-oxo-2-[(3R,4S)-5-oxo-4-phenylpyrrolidin-3-yl]acetamide]",< 1000,1000 to 10000
"O=C(NC1CC1)C(=O)[C@H]1CN(c2cncnc2)C(=O)[C@@H]1Cc1ccccc1 (racemic) [FP-54, Rac-2-[(3R,4R)-4-benzyl-5-oxo-1-(pyrimidin-5-yl)pyrrolidin-3-yl]-N-cyclopropyl-2-oxoacetamide]",< 1000,< 1000
"CC1(NC(=O)C(=O)[C@H]2CNC(=O)[C@@H]2c2ccccc2)CC1 (racemic) [FP-20, Rac-N-(1-methylcyclopropyl)-2-oxo-2-[(3R,4S)-5-oxo-4-phenylpyrrolidin-3-yl]acetamide]",< 1000,1000 to 10000
"CC(F)(F)CNC(=O)C(=O)[C@H]1CN(c2cncnc2)C(=O)[C@@H]1Cc1ccccc1 (racemic) [FP-56, Rac-2-[(3R,4R)-4-benzyl-5-oxo-1-(pyrimidin-5-yl)pyrrolidin-3-yl]-N-(2,2-difluoropropyl)-2-oxoacetamide]",< 1000,< 1000
"CCNC(=O)C(=O)[C@H]1CNC(=O)[C@@H]1Cc1ccc(F)cc1 (racemic) [FP-30, Rac-N-ethyl-2-[(3R,4R)-4-[(4-fluorophenyl)methyl]-5-oxopyrrolidin-3-yl]-2-oxoacetamide]",< 1000,< 1000
"Cn1ncnc1CN1C[C@H](C(=O)C(=O)NCC(C)(F)F)[C@@H](Cc2ccc(F)cc2)C1=O (racemic) [FP-53, Rac-N-(2,2-difluoropropyl)-2-[(3R,4R)-4-[(4-fluorophenyl)methyl]-1-[(1-methyl-1H-1,2,4-triazol-5-yl)methyl]-5-oxopyrrolidin-3-yl]-2-oxoacetamide]",< 1000,1000 to 10000
"N#Cc1ncncc1N1C[C@H](C(=O)C(=O)NC2CC2)[C@@H](Cc2ccccc2)C1=O (racemic) [FP-65, Rac-2-[(3R,4R)-4-benzyl-1-(4-cyanopyrimidin-5-yl)-5-oxopyrrolidin-3-yl]-N-cyclopropyl-2-oxoacetamide]",< 1000,1000 to 10000
"O=C(NC1CC(F)(F)C1)C(=O)[C@H]1CNC(=O)[C@@H]1c1ccccc1 (racemic) [FP-16, Rac-N-(3,3-difluorocyclobutyl)-2-oxo-2-[(3R,4S)-5-oxo-4-phenylpyrrolidin-3-yl]acetamide]",< 1000,1000 to 10000
"O=C(NC1CC1)C(=O)[C@H]1CN(Cc2ccccc2)C(=O)[C@@H]1c1ccccc1 (racemic) [FP-99, Rac-2-[(3R,4S)-1-benzyl-5-oxo-4-phenylpyrrolidin-3-yl]-N-cyclopropyl-2-oxoacetamide]",< 1000,1000 to 10000
"O=C(NC1CCCC1)C(=O)[C@H]1CNC(=O)[C@@H]1c1ccccc1 (racemic) [FP-79, Rac-N-cyclopentyl-2-oxo-2-[(3R,4S)-5-oxo-4-phenylpyrrolidin-3-yl]acetamide]",< 1000,< 1000
"O=C(NC1CC1)C(=O)[C@H]1CN(CC(F)F)C(=O)[C@@H]1Cc1ccccc1 (racemic) [FP-49, Rac-2-[(3R,4R)-4-benzyl-1-(2,2-difluoroethyl)-5-oxopyrrolidin-3-yl]-N-cyclopropyl-2-oxoacetamide]",< 1000,< 1000
"Cc1cc(CN2C[C@H](C(=O)C(=O)NC3CC3)[C@@H](Cc3ccccc3)C2=O)on1 (racemic) [FP-46, Rac-2-[(3R,4R)-4-benzyl-1-[(3-methyl-1,2-oxazol-5-yl)methyl]-5-oxopyrrolidin-3-yl]-N-cyclopropyl-2-oxoacetamide]",< 1000,1000 to 10000
"Cn1ncnc1CN1C[C@H](C(=O)C(=O)NC2CC2)[C@@H](Cc2ccc(F)cc2)C1=O (racemic) [FP-52, Rac-N-cyclopropyl-2-[(3R,4R)-4-[(4-fluorophenyl)methyl]-1-[(1-methyl-1H-1,2,4-triazol-5-yl)methyl]-5-oxopyrrolidin-3-yl]-2-oxoacetamide]",< 1000,> 10000

# — patent US11180479B2 (HAPLOGEN GmbH, priority 2017, dated 2021)
